For experiment [1], the system named is GFP–paCaMKII T286A in hippocampal neurons. Description: paCaMKII T286A photoactivation: synaptic enrichment in hippocampal neurons. Format: cell-based. On the procedure:
Neurons were wrapped in aluminium foil immediately following transfection and only exposed to red light in imaging. One image was then taken of each neuron to serve as a pre-photoactivation baseline. Immediately following this baseline image, paCaMKII was globally photoactivated with a 405 nm laser pulse (100 ms exposure, 75% laser power) once every 10 s for a total of 60 s. Neurons were then imaged 15 min after stimulation and assessed for CaMKII synaptic enrichment and dendritic spine growth.
Neuronal cultures were transfected on DIV 15–18 and imaged 24–48 h later. […] Two-dimensional maximum-intensity projection images were then generated and analysed using a custom-build programme in ImageJ. The programme utilizes combinatorial thresholding to mask regions of the cell that contain high-intensity puncta of postsynaptic density protein 95 (PSD95; a marker of the post-synaptic side of excitatory synapses in dendritic spines) and regions of the dendritic shaft that contain no fluorescence intensity of PSD95. As a measure of synaptic enrichment, the ratio of mean CaMKII fluorescence intensity of the PSD95 mask to the mean CaMKII fluorescence intensity in the dendritic shaft mask is measured. Spine growth was assessed by measuring the changes in mCherry cell fill fluorescence intensity within dendritic spine divided by the initial fluorescence intensity (F/F0).

Another experiment deals with CDK2/cyclinE(h) (Homo sapiens, UniProt P24941). Description: Kinase selectivity panel (residual activity at 1 μM). The format is biochemical. As to conditions: inhibitor at 1 μM.
In a further experiment the target is SAPK2a(h) (Homo sapiens, UniProt Q16539). Described as above. The format is biochemical. As to conditions: inhibitor at 1 μM.
SAPK2a(h), sequence (Q16539 whole entry): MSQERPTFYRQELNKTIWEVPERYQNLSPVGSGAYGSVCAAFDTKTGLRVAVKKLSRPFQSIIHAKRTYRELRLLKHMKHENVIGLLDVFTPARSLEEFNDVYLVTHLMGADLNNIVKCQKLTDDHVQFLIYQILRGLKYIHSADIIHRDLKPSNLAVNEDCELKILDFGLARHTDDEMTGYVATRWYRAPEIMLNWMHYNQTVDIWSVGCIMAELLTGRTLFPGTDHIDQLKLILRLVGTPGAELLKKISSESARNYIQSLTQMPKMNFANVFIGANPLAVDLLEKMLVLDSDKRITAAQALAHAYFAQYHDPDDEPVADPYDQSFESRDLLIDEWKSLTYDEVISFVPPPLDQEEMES
The target of the next experiment is Flt3(h) (Homo sapiens, UniProt P36888). Described as above. The format is biochemical. Conditions: inhibitor at 1 μM; read-out: residual kinase activity in % of maximal activity.
Flt3(h), sequence (P36888 27-993): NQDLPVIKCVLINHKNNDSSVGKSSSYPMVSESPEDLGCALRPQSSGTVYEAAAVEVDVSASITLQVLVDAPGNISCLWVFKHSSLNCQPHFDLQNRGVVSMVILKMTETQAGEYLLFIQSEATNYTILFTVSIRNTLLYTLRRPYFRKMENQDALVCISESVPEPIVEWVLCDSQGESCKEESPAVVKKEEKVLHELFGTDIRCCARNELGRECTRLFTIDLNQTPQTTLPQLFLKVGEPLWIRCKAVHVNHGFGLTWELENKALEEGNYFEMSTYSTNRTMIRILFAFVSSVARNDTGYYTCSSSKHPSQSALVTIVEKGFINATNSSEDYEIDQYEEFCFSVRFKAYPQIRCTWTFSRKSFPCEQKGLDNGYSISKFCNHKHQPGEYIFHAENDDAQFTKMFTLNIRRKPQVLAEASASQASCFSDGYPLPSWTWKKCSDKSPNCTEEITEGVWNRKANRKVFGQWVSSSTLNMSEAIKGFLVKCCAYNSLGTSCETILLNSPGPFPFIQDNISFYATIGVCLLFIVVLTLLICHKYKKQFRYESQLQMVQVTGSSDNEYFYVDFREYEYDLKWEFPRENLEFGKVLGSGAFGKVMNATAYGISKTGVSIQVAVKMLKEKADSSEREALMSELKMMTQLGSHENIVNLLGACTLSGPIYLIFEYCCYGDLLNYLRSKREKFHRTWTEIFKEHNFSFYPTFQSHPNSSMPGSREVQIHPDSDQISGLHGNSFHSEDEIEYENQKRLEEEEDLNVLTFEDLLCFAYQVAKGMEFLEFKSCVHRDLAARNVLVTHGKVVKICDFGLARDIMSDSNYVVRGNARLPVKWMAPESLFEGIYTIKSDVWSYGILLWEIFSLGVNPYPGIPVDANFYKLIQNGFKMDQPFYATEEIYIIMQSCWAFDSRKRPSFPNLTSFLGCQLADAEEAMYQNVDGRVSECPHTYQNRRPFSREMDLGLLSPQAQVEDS
Another experiment deals with ROCK-II(h) (Homo sapiens, UniProt O75116). The description is as above. The format is biochemical. Conditions: inhibitor at 1 μM; read-out: residual kinase activity in % of maximal activity.
The target in another experiment is PKCα(h) (Homo sapiens, UniProt P17252). Described as above. As to conditions: inhibitor at 1 μM; read-out: residual kinase activity in % of maximal activity. The format is biochemical.
For another experiment, the target named is PKG1α(h) (Homo sapiens, UniProt Q13976). The description is as above. The format is biochemical. Conditions: inhibitor at 1 μM; read-out: residual kinase activity in % of maximal activity.
PKG1α(h), sequence (Q13976 whole entry): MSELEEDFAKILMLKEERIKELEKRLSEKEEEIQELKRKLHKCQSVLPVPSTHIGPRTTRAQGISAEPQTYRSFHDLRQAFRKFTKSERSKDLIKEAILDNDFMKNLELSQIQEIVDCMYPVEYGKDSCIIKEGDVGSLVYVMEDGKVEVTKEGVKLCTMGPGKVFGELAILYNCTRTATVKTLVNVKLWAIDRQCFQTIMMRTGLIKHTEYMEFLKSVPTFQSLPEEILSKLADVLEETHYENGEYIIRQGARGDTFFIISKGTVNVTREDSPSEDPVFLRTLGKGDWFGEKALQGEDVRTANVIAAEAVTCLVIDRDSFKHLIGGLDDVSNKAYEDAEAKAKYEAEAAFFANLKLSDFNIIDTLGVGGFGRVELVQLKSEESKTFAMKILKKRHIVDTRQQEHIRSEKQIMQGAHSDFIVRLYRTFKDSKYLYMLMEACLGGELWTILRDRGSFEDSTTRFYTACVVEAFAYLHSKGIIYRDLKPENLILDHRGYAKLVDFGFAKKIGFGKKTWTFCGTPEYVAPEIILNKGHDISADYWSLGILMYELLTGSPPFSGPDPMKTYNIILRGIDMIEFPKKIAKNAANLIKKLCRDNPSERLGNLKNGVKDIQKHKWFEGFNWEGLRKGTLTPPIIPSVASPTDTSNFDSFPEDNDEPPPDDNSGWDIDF
A further experiment concerns the target Pim-1(h) (Homo sapiens, UniProt P11309). The experiment is described as above. The format is biochemical. As to conditions: inhibitor at 1 μM; read-out: residual kinase activity in % of maximal activity.
The next experiment addresses mTOR(h) (Homo sapiens, UniProt P42345). The description is as above. As to conditions: inhibitor at 1 μM; read-out: residual kinase activity in % of maximal activity. The format is biochemical.
The target in a further experiment is FGFR1(h) (Homo sapiens, UniProt P11362). Described as above. As to conditions: inhibitor at 1 μM; read-out: residual kinase activity in % of maximal activity. Format: biochemical.
FGFR1(h), sequence (P11362 22-822): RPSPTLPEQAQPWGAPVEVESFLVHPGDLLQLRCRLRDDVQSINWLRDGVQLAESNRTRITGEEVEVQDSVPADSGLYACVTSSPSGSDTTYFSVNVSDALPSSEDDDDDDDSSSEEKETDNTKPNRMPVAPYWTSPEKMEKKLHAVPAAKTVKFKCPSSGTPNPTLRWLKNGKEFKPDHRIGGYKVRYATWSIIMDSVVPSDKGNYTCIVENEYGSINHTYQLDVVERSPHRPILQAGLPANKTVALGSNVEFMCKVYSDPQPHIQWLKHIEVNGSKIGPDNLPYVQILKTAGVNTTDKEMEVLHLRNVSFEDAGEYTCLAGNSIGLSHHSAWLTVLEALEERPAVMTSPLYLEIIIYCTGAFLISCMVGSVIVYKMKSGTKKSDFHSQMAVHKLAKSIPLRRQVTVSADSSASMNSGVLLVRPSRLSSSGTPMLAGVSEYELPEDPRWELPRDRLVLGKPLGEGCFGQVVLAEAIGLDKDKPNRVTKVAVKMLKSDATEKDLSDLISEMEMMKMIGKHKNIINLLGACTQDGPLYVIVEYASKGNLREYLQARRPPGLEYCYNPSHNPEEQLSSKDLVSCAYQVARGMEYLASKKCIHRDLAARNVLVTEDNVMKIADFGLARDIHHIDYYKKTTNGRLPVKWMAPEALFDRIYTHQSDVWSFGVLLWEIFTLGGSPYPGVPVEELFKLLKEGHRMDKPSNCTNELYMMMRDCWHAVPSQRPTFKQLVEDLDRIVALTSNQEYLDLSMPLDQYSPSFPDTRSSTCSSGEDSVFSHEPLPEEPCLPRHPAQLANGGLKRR
The target of experiment [2] is T1, CaMKII-F89G binding to GST-GluN2B-c (Homo sapiens, UniProt Q9UQM7, F89G).
T1 construct: made in house; host or cells: HEK293 overexpression (CaMKII mutant); BL21 bacteria (CaM, GST-GluN2Bc)
T1 sequence (Q9UQM7 whole entry F89G): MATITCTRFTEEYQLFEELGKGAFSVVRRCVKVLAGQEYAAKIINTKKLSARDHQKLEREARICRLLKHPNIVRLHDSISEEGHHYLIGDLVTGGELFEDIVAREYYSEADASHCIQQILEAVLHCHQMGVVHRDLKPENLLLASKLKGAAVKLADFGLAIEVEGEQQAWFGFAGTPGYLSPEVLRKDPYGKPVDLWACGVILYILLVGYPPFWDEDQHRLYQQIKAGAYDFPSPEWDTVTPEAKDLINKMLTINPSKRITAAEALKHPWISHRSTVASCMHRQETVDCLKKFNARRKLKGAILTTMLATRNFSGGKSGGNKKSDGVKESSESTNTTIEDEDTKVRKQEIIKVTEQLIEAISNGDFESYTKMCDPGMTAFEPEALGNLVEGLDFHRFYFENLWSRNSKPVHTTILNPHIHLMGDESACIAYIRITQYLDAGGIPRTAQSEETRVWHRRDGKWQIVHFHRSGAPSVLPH
T1 sequence (Q13224 836-1484, further chain): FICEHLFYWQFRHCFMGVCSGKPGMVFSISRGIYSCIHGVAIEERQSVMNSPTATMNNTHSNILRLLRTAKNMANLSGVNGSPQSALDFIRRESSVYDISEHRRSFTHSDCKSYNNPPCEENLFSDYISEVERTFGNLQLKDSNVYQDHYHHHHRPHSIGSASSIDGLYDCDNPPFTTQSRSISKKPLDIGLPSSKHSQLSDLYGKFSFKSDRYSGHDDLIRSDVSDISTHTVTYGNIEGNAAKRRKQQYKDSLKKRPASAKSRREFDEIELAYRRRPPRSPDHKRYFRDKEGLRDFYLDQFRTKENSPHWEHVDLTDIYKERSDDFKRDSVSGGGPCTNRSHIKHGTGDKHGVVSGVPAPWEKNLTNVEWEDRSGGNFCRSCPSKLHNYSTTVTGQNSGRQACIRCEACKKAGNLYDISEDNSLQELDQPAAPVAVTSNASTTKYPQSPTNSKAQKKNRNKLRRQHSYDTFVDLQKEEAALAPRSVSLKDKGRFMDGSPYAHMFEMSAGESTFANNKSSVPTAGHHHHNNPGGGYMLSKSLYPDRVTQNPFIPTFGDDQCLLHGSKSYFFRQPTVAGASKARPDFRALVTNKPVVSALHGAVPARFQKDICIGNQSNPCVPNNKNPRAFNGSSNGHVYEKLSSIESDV
Description: CaMKII-F89G binding to immobilized GST-GluN2B-c in vitro. On the procedure:
CaMKII–GluN2B binding assays were done as described[9],[13],[25]. Briefly, GST–GluN2B-c tail (GST–2BC) was immobilized on anti-GST antibody-coated microtiter plates (Thermo Scientific), blocked for 30 min with 5% BSA and then overlaid with […] CaMKII (subunit concentration) in PIPES-buffered saline (pH 7.2) containing 2 mM Ca^2+, 1 μM CaM, 1 mM Mg^2+, 0.1% BSA and 0.1% Tween-20 for 20 min at room temperature. The addition of 1 mM ADP, 1 mM ATP, 10 μM AS283 (or AS105) or 10 μM NM-PP1 was added accordingly (Figs. 1–6). After extensive washes in buffer containing 1 mM EGTA, GST–2BC and bound CaMKII were eluted for 10 min in SDS loading buffer at 95 °C. Bound CaMKII was measured via immunoblot.
Extended Data Fig. 4 CaMKII WT and K42M are unaffected by NM-PP1 in HEK cells. Data are presented as mean values +/− SEM. a, Representative immunoblot and quantification of in vitro kinase reactions at 30 °C in 1 mM ATP measuring CaMKIIα WT and F89G phosphorylation of T286 (n = 4 independent samples, **p < 0.01, ***p < 0.001; two-way ANOVA with Šídák’s multiple comparisons test). WT) –:ATP p = 0.0012; –:ATP+NM-PP1 p = 0.0002; ATP:ATP+NM-PP1 p = 0.7989. […] Scale bar indicates 10 μm. n = 22, 17 cells; see Fig. 4c for quantification. c, Binding of CaMKII-F89G to immobilized GST-GluN2B-c was induced by Ca^2+/CaM in the presence of either 1 mM ADP or 10 μM NM-PP1. […]

Values joined by “and” are separate entries in the source; they are usually repeats but may differ in a detail not shown here. Equal entries are not always repeated.

Pim-1(h), sequence (P11309 whole entry): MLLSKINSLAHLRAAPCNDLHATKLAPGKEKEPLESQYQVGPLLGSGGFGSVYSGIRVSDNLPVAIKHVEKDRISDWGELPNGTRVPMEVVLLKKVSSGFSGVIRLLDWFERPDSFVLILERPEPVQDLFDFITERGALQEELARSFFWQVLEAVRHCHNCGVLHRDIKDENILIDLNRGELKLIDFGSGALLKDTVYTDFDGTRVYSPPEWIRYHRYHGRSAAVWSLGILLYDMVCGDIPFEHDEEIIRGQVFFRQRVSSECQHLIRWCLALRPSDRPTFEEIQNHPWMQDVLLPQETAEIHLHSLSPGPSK

For `NCCNc1cccc(-c2ccnc3[nH]c4ccccc4c23)c1` [AS283], the “CaMKII movement after photoactivation of paCaMKII T286A” value in experiment [1] (AS283 10 μM) was “robust CaMKII movement”. Further, in [1] (paCaMKII T286A + AS283, individual neurons), the “synaptic enrichment after photoactivation (sheet 6b)” value is 1.441 and 1.27 and 1.593 and 1.399 and 1.769 and 1.014 and 1.25 and 1.28 and 1.281 and 1.778. Besides, the “residual kinase activity in % of maximal activity” value at CDK2/cyclinE(h) was found to be 41%; on SAPK2a(h), 95%. Also, the remaining activity at 1 µM at Flt3(h) came to 3%; at ROCK-II(h), 77%; on PKCα(h) it was 49%; on PKG1α(h), 48%; on Pim-1(h) it was 50%; on mTOR(h) it was 115%. In addition, the remaining activity at 1 µM at FGFR1(h) turned out to be 58%.
Regarding `CC(C)(C)n1nc(Cc2cccc3ccccc23)c2c(N)ncnc21` [NM-PP1], the “bound CaMKII-F89G (immunoblot, relative)” value in experiment [2] (Ca2+/CaM, 10 μM NM-PP1) was 3.501 and 3.151 and 3.552 and 3.537. Further, the “effect on binding of CaMKII F89G to GluN2B in vitro” value in experiment [2] (NM-PP1) is listed as “enabled binding”.

(Values after publication PMC10482691, “LTP induction by structural rather than enzymatic functions of CaMKII” (Nature, 2023).)
